Test results: patent US8987268B2, “Pyrrolopyridazine JAK3 inhibitors and their use for the treatment of inflammatory and autoimmune diseases” (Bristol-Myers Squibb Company, priority 2011, dated 2015)

Legend:
[1] = target: GST-JAK1 enzyme (Homo sapiens (Human), UniProt P23458); experiment: JAK1 Kinase Assay Protocol; assay type: biochemical; details: JAK1 kinase inhibition; read-out: LLE_JAK1 (IC50)
Protocol: JAK1 Kinase Assay Protocol
(§1) The assay reactions were performed in U-bottom 384-well plates. […] The reaction was initiated by the combination of GST-JAK1 enzyme with substrates and test compounds. The reactions were incubated at room temperature for 3 hours and terminated by adding 60 μl of 35 mM EDTA to each sample. Each reaction mixture was analyzed on the Caliper LabChip 3000 (Caliper, Hopkinton, Mass.) by electrophoretic separation of the fluorescent substrate and phosphorylated product. […] Compounds were dissolved at 10 mM in dimethylsulfoxide (DMSO) and evaluated at eleven concentrations. IC50 values were derived by non-linear regression analysis.

[2] = target: GST-JAK3 enzyme (Homo sapiens (Human), UniProt P52333); experiment: JAK3 Kinase Assay Protocol (Caliper); assay type: biochemical; details: JAK3 kinase inhibition; read-out: LLE_JAK3_FB (IC50)
Protocol: JAK3 Kinase Assay Protocol (Caliper)
as §1, with “GST-JAK3” for “GST-JAK1”

Sequence of GST-JAK3 enzyme (P52333 whole entry): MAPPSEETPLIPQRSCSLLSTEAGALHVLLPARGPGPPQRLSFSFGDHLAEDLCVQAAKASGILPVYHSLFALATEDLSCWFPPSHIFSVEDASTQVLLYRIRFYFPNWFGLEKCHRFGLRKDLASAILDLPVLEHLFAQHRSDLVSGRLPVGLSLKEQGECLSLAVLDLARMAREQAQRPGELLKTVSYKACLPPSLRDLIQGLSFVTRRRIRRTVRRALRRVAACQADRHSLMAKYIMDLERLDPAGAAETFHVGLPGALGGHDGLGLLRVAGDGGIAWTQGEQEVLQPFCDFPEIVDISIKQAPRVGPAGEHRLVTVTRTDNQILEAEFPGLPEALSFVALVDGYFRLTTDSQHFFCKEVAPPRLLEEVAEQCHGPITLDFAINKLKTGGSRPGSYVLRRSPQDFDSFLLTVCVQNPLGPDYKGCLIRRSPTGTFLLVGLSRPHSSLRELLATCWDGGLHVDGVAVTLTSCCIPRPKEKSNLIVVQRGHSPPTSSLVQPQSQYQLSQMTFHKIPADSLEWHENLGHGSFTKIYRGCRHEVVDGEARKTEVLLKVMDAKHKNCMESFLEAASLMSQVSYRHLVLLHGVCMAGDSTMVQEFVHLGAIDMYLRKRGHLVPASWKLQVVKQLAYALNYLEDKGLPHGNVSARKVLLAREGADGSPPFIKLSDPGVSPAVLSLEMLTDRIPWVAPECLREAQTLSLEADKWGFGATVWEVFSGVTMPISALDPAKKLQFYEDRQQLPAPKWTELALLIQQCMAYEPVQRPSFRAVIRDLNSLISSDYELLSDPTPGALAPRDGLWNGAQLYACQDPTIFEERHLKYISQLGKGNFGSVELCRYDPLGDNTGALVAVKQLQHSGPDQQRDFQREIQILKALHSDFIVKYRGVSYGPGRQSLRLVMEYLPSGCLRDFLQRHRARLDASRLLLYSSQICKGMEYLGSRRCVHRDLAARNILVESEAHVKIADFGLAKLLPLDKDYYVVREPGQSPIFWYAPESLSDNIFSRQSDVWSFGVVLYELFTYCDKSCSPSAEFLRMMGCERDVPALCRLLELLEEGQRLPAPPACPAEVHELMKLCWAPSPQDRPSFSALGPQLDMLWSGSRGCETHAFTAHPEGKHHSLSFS
Sequence of GST-JAK1 enzyme (P23458 whole entry): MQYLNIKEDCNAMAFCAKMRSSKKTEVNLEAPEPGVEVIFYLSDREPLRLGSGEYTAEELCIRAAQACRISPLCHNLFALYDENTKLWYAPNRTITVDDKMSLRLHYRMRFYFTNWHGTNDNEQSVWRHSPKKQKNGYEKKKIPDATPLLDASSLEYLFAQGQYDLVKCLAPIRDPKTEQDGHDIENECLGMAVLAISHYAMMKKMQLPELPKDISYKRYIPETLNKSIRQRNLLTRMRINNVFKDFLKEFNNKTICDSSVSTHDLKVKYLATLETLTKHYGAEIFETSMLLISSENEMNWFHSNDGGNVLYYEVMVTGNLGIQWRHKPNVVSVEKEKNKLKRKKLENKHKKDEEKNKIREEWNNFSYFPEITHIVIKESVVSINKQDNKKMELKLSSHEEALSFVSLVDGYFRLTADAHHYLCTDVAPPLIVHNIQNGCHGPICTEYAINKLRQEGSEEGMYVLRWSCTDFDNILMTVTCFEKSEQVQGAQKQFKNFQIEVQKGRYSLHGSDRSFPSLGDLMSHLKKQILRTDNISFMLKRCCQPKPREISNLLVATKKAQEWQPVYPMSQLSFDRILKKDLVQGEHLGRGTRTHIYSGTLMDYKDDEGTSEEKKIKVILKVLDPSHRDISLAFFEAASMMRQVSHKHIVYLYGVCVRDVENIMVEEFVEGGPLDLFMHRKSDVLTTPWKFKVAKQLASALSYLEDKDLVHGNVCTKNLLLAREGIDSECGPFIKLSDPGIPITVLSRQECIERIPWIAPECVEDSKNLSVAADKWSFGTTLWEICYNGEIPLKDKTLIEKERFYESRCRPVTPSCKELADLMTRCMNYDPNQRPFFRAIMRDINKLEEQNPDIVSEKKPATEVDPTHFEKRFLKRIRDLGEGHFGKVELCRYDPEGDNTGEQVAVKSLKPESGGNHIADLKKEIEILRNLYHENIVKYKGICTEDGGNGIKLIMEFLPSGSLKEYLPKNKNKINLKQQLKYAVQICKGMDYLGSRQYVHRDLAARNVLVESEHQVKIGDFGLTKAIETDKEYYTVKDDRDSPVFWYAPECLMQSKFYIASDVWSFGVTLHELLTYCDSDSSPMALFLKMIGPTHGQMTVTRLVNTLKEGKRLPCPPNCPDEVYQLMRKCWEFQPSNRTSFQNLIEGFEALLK

IC50 [1]	IC50 [2]	Compound
0.7 nM	0.2 nM	CC1(C)CN(c2ccc(C#N)cn2)CC[C@H]1Nc1c(C(N)=O)cnn2cc(N3CC[C@@H](O)C3=O)cc12 [Example 105, 4-((R)-1-(5-cyanopyridin-2-yl)-3,3-dimethylpiperidin-4-ylamino)-6-((R)-3-hydroxy-2-oxopyrrolidin-1-yl)pyrrolo[1,2-b]pyridazine-3-carboxamide]
2.4 nM	1.4 nM	CCCC(=O)O[C@H]1CCN(c2cc3c(N[C@@H]4CCN(c5ncc(C#N)cn5)CC4(C)C)c(C(N)=O)cnn3c2)C1=O [Example 122, (S)-1-(3-carbamoyl-4-(((R)-1-(5-cyanopyrimidin-2-yl)-3,3-dimethylpiperidin-4-yl)amino)pyrrolo[1,2-b]pyridazin-6-yl)-2-oxopyrrolidin-3-yl butyrate]
1 nM	1.5 nM	CC[C@@H]1CN(S(C)(=O)=O)CC[C@H]1Nc1c(C(N)=O)cnn2cc(-c3cnn(CCC#N)c3)cc12 [Example 126, 6-(1-(2-cyanoethyl)-1H-pyrazol-4-yl)-4-((3R,4R)-3-ethyl-1-(methylsulfonyl)piperidin-4-ylamino)pyrrolo[1,2-b]pyridazine-3-carboxamide]
7.6 nM	5.6 nM	CC[C@@H]1CN(C(=O)[C@@H](O)CC)CC[C@H]1Nc1c(C(N)=O)cnn2cc(-c3cnn(C)c3)cc12 [Example 127, 4-(((3R,4R)-3-ethyl-1-((S)-2-hydroxybutanoyl)piperidin-4-yl)amino)-6-(1-methyl-1H-pyrazol-4-yl)pyrrolo[1,2-b]pyridazine-3-carboxamide]
3.6 nM	7.1 nM	CC[C@@H]1CN(C(=O)C(C)(C)O)CC[C@H]1Nc1c(C(N)=O)cnn2cc(-c3ccnc(C)c3)cc12 [Example 131, 4-((3R,4R)-3-ethyl-1-(2-hydroxy-2-methylpropanoyl)piperidin-4-ylamino)-6-(2-methylpyridin-4-yl)pyrrolo[1,2-b]pyridazine-3-carboxamide]
4.5 nM	7 nM	CC[C@@H]1CN(C(=O)[C@H](C)O)CC[C@H]1Nc1c(C(N)=O)cnn2cc(-c3ccnc(OC)c3)cc12 [Example 134, 4-((3R,4R)-3-ethyl-1-((S)-2-hydroxypropanoyl)piperidin-4-ylamino)-6-(2-methoxypyridin-4-yl)pyrrolo[1,2-b]pyridazine-3-carboxamide]
2 nM	1.4 nM	CC[C@@H]1CN(C(=O)[C@H](C)O)CC[C@H]1Nc1c(C(N)=O)cnn2cc(-c3cnn(CC(C)C)c3)cc12 [Example 137, 4-((3R,4R)-3-ethyl-1-((S)-2-hydroxypropanoyl)piperidin-4-ylamino)-6-(1-isobutyl-1H-pyrazol-4-yl)pyrrolo[1,2-b]pyridazine-3-carboxamide]
9 nM	7.8 nM	CC[C@@H]1CN(C(=O)[C@@H](C)O)CC[C@H]1Nc1c(C(N)=O)cnn2cc(-c3cnn(C)c3)cc12 [Example 152, 4-((3R,4R)-3-ethyl-1-((R)-2-hydroxypropanoyl)piperidin-4-ylamino)-6-(1-methyl-1H-pyrazol-4-yl)pyrrolo[1,2-b]pyridazine-3-carboxamide]
0.8 nM	0.4 nM	CC[C@H]1CN(c2ccc(C#N)cn2)C[C@H]1Nc1c(C(N)=O)cnn2cc(-c3ccc(=O)n(C)c3)cc12 [Example 173, 4-((3S,4S)-1-(5-cyanopyridin-2-yl)-4-ethylpyrrolidin-3-ylamino)-6-(1-methyl-6-oxo-1,6-dihydropyridin-3-yl)pyrrolo[1,2-b]pyridazine-3-carboxamide]
1.9 nM	1.5 nM	CC[C@H]1CN(c2ccc(C#N)cn2)C[C@H]1Nc1c(C(N)=O)cnn2cc(-c3cnn(C)c3)cc12 [Example 175, 4-((3S,4S)-1-(5-cyanopyridin-2-yl)-4-ethylpyrrolidin-3-ylamino)-6-(1-methyl-1H-pyrazol-4-yl)pyrrolo[1,2-b]pyridazine-3-carboxamide]
0.8 nM	0.3 nM	CC[C@H]1CN(c2ncc(C#N)s2)C[C@H]1Nc1c(C(N)=O)cnn2cc(-c3cnn(C)c3)cc12 [Example 182, 4-((3S,4S)-1-(5-cyanothiazol-2-yl)-4-ethylpyrrolin-3-ylamino)-6-(1-methyl-1H-pyrazol-4-yl)pyrrolo[1,2-b]pyridazine-3-carboxamide]
0.8 nM	0.2 nM	CC[C@H]1CN(c2ncc(C#N)s2)C[C@H]1Nc1c(C(N)=O)cnn2cc(-c3cnn(CC(C)C)c3)cc12 [Example 183]
0.2 nM	0.4 nM	C[C@H]1CN(c2ccc(C#N)cn2)C[C@H]1Nc1c(C(N)=O)cnn2cc(-c3cnn(CC(=O)N4CC(F)(F)C4)c3)cc12 [Example 184, 4-(((3S,4S)-1-(5-cyanopyridin-2-yl)-4-methylpyrrolidin-3-yl)amino)-6-(1-(2-(3,3-difluoroazetidin-1-yl)-2-oxoethyl)-1H-pyrazol-4-yl)pyrrolo[1,2-b]pyridazine-3-carboxamide]
0.3 nM	0.6 nM	C[C@H]1CN(c2ccc(C#N)cn2)C[C@H]1Nc1c(C(N)=O)cnn2cc(-c3cnn(CC(=O)N4CCC(F)(F)C4)c3)cc12 [Example 185, 4-(((3S,4S)-1-(5-cyanopyridin-2-yl)-4-methylpyrrolidin-3-yl)amino)-6-(1-(2-(3,3-difluoropyrrolidin-1-yl)-2-oxoethyl)-1H-pyrazol-4-yl)pyrrolo[1,2-b]pyridazine-3-carboxamide]
0.4 nM	0.5 nM	CNC(=O)Cn1cc(-c2cc3c(N[C@@H]4CN(c5ccc(Cl)cn5)C[C@@H]4C)c(C(N)=O)cnn3c2)cn1 [Example 188, 4-(((3S,4S)-1-(5-chloropyridin-2-yl)-4-methylpyrroldin-3-yl)amino)-6-(1-(2-(methylamino)-2-oxoethyl)-1H-pyrazol-4-yl)pyrrolo[1,2-b]pyridazine-3-carboxamide]
0.5 nM	1.4 nM	C[C@H]1CN(C(=O)CC#N)C[C@H]1Nc1c(C(N)=O)cnn2cc(-c3ccnc(F)c3)cc12 [Example 201, 4-(((3S,4S)-1-(2-cyanoacetyl)-4-methylpyrrolidin-3-yl)amino)-6-(2-fluoropyridin-4-yl)pyrrolo[1,2-b]pyridazine-3-carboxamide]
4.7 nM	7.5 nM	CNC(=O)c1ccc(-c2cc3c(N[C@@H]4CN(C(=O)OC)C[C@@H]4C)c(C(N)=O)cnn3c2)cn1 [Example 213, (3S,4S)-methyl 3-((3-carbamoyl-6-(6-(methylcarbamoyl)pyridin-3-yl)pyrrolo[1,2-b]pyridazin-4-yl)amino)-4-methylpyrrolidine-1-carboxylate]
1.1 nM	1.5 nM	CC[C@H]1CN(C(=O)C2(C#N)CC2)C[C@H]1Nc1c(C(N)=O)cnn2cc(-c3cn(C)nc3C)cc12 [Example 220, 4-((3S,4S)-1-(1-cyanocyclopropanecarbonyl)-4-ethylpyrrolidin-3-ylamino)-6-(1,3-dimethyl-1H-pyrazol-4-yl)pyrrolo[1,2-b]pyridazine-3-carboxamide]
1 nM	1.4 nM	CC[C@H]1CN(C(=O)C2(C#N)CC2)C[C@H]1Nc1c(C(N)=O)cnn2cc(-c3ccc(C)nc3)cc12 [Example 221, 4-((3S,4S)-1-(1-cyanocyclopropanecarbonyl)-4-ethylpyrrolidin-3-ylamino)-6-(6-methylpyridin-3-yl)pyrrolo[1,2-b]pyridazine-3-carboxamide]
4.3 nM	8.6 nM	CCNC(=O)c1ccc(-c2cc3c(N[C@@H]4CN(C(=O)C(C)(C)C#N)C[C@@H]4CC)c(C(N)=O)cnn3c2)cn1 [Example 252, 4-((3S,4S)-1-(2-cyano-2-methylpropanoyl)-4-ethylpyrrolidin-3-ylamino)-6-(6-(ethylcarbamoyl)pyridin-3-yl)pyrrolo[1,2-b]pyridazine-3-carboxamide]
1.2 nM	0.3 nM	CC[C@H]1CN(C(=O)C2(C#N)CCC2)C[C@H]1Nc1c(C(N)=O)cnn2cc(-c3ccnc(Cl)c3)cc12 [Example 257, 6-(2-chloropyridin-4-yl)-4-((3S,4S)-1-(1-cyanocyclobutanecarbonyl)-4-ethylpyrrolidin-3-ylamino)pyrrolo[1,2-b]pyridazine-3-carboxamide]
0.9 nM	8.9 nM	COc1ncc(-c2cc3c(N[C@@H]4CN(C(=O)C5(C#N)CC5)C[C@@H]4CF)c(C(N)=O)cnn3c2)cn1 [Example 280, 4-((3S,4S)-1-(1-cyanocyclopropanecarbonyl)-4-(fluoromethyl)pyrrolidin-3-ylamino)-6-(2-methoxypyrimidin-5-yl)pyrrolo[1,2-b]pyridazine-3-carboxamide]
1.8 nM	11.8 nM	CCOc1ncc(-c2cc3c(N[C@@H]4CN(C(=O)C5(C#N)CC5)C[C@@H]4CF)c(C(N)=O)cnn3c2)cn1 [Example 281, 4-((3S,4S)-1-(1-cyanocyclopropanecarbonyl)-4-(fluoromethyl)pyrrolidin-3-ylamino)-6-(2-ethoxypyrimidin-5-yl)pyrrolo[1,2-b]pyridazine-3-carboxamide]
0.7 nM	0.5 nM	CC[C@H]1CN(C(=O)C2(C#N)CC2)C[C@H]1Nc1c(C(N)=O)cnn2cc(-c3cc(C)no3)cc12 [Example 292, 4-(((3S,4S)-1-(1-cyanocyclopropanecarbonyl)-4-ethylpyrrolidin-3-yl)amino)-6-(3-methylisoxazol-5-yl)pyrrolo[1,2-b]pyridazine-3-carboxamide]
